How the values were obtained:
Type in all cases: in vivo
[1] = test system: southern armyworm (Spodoptera eridania, (Cram.)) larvae; experiment: Southern armyworm leaf spray bait test; parameters: key: A: excellent control; B: partial control; C: no control at 500 ppm; settings: 500 parts per million, three days
Experimental: (§1) Suspensions of the test compounds were prepared by dissolving one gram of compound in 50 milliliters of acetone in which had been dissolved 0.1 gram (10 percent of the weight of compound) of an alkylphenoxy polyethoxyethanol surfactant, as an emulsifying or dispersing agent. The resulting solution was mixed into 150 milliliters of water to give roughly 200 milliliters of a suspension containing the compound in finely divided form. The thus-prepared stock suspension contained 0.5 percent by weight of compound. The concentrations in parts per million by weight employed in the tests described hereinbelow were obtained by appropriate dilutions of the stock suspension with water. The test procedures were as follows:
Larvae of the southern armyworm (Spodoptera eridania, (Cram.)), reared on Tendergreen bean plants at a temperature of 80±5° F. and a reative humidity of 50±5 percent, constituted the test insects.
The test compounds were formulated by diluting the stock suspension with water to give a suspension containing 500 parts of test compound per million parts of final formulation. Potted Tendergreen bean plants of standard height and age were placed on a revolving turntable and sprayed with 100-110 milliliters of test compound formulation by use of a DeVilbiss spray gun set at 40 psig air pressure. This application, which lasted 25 seconds, was sufficient to wet the plants to run-off. As a control, 100-110 milliliters of a water-acetone-emulsifier solution containing no test compound were also sprayed on infested plants. When dry, the paired leaves were separated and each one was placed in a 9 centimeter Petri dish lines with moistened filter paper. Five randomly selected larvae were introduced into each dish and the dishes were closed. The closed dishes were labeled and held at 80°-85° F. for three days. Although the larvae could easily consume the whole leaf within twenty-four hours, no more food was added. Larvae which were unable to move the length of the body, even upon stimulation by prodding, were considered dead.
(§2) In these tests the pesticidal activity of the compounds at the indicated dosage rate against aphid, Southern Armyworm, Bean Beetle and housefly was rated as follows: […]

[2] = test system: Mexican bean beetle (Epilachna varivestis, Muls.) larvae; experiment: Mexican bean beetle leaf spray test; parameters: key: A: excellent control; B: partial control; C: no control at 500 ppm; settings: 500 parts per million, fourth instar larvae, three days
Experimental: as §1
Fourth instar larvae of the Mexican bean beetle (Epilachna varivestis, Muls.), reared on Tendergreen bean plants at a temperature of 80±5° F. and 50±5° F. percent relative humdity, were the test insects.
The test compounds were formulated by diluting the stock suspension with water to give a suspension containing 500 parts of test compound per million parts of final formulation. Tendergreen bean plants of standard height and age were placed on a revolving turntable and sprayed with 100-110 milliliters of test compound formulation by use of a DeVilbiss spray gun set at 40 psig air pressure. This application, which lasted 25 seconds, was sufficient to wet the plants to run-off. As a control, 100-110 milliliters of a water-acetone-emulsifier solution containing no test compound was also sprayed on infested plants. When dry, the paired leaves were separated and each was placed in a 9 centimeter Petri dish lined with moistened filter paper. Five randomly selected larvae were introduced into each dish, and the dishes were closed. The closed dishes were labeled and held at a temperature of 80±5° F., for three days. Although the larvae could easily consume the leaf within 24 to 48 hours, no more food was added. Larvae which were unable to move the length of the body, even upon stimulation, were considered dead.
as §2

[3] = test system: root-knot nematode, Meloidogyne incognita var. acrita; experiment: Nematocide test; parameters: key: 1: severe galling, equal to untreated plants; 2: moderate galling; 3: light galling; 4: very light galling; 5: no galling, perfect control; settings: 3.33 m.g. per jar, cucumber, approximately 3 weeks
Experimental: The test organism used was the infective migratory larvae of the root-knot nematode, Meloidogyne incognita var. acrita, reared in the greenhouse on roots of cucumber plants. Infected plants were removed from the culture, and the roots were chopped very finely. A small amount of this inoculum was added to a pint jar containing approximately 180 cc. of soil. The jars were capped and incubated for one week at room temperature. During this period eggs of the nematode were hatched, and the larval forms migrated into the soil.
Ten ml. of the test formulation were added to each of the two jars for each dosage tested. Following the addition of chemical, the jars were capped, and the contents thoroughly mixed on a ball mill for […].
The test compounds were formulated by a standard procedure of solution in acetone addition of an emulsifier, and dilution with water. Primary screening tests were conducted at 3.33 m.g. of the test compound per jar.
The jars were left capped at room temperature for a period of 48 hours, and the contents then transferred to 3 inch pots. Subsequently, the pots were seeded to cucumber as an indicator crop and placed in the greenhouse where they were cared for in the normal fashion for approximately 3 weeks.
The cucumber plants were then taken from the pots, the soil removed from the roots, and the amount of galling visually rated.
In the test for activity against nematodes activity was rated as follows: […]

## CSC(C)=NOC(=O)N(C)SN(C)C(=O)Oc1cccc(C=O)c1 [Compound 3]
[1]
  Southern Armyworm, pesticidal activity rating: A
[2]
  Mexican Bean Beetle, pesticidal activity rating: A
[3]
  Root-Knot Nematode, galling rating: 1
